Data taken from patent publication US7319109B2, “Farnesoid X receptor agonists” (Smith Kline Beecham Corporation, priority 2002, dated 2008).

Biological target: T1, Human FXRα Ligand Binding Domain (FXRα LBD) (Homo sapiens, UniProt Q96RI1)
T1 construct: polyhistidine (N); made in house; host or cells: E. coli BL21 (DE3), pRSET-A vector
T1 sequence (Q96RI1 222-472 isoform Q96RI1-2): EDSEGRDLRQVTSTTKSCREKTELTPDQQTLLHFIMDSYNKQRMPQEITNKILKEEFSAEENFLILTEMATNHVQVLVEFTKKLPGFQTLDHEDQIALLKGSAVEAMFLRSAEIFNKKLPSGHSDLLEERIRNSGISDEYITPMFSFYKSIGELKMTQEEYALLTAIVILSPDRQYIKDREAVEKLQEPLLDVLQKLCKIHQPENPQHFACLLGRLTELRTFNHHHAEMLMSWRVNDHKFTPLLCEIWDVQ
Assay: FXR Affinity Binding Assay: ligand mediated cofactor peptide (SRC-1 LCD2, 676-700) interaction, time resolved fluorescence
Conditions: FXRα LBD-APC / europium labeled SRC-1 peptide, TRF signal, at least 2 hours at room temperature; read-out: Activity (pEC50) (converted)
Protocol: Determination of a ligand mediated cofactor peptide interaction to quantify ligand binding to the nuclear receptor Farnasoid X Receptor (FXR). The method measures the ability of putative ligands to modulate the interaction between the purified bacterial expressed FXRα (LBD) and a synthetic biotinylated peptide based on residues 676-700 of SRC-1(LCD2, 676-700). […] Detection of the associated complex is measured by time resolved fluorescence (TRF). The purified LBD of FXR is labeled with biotin then mixed with stoichiometric amounts of APC labeled streptavidin (Molecular Probes). The biotinylated peptide is then mixed with a ½ stoichiometric amount of europium labeled streptavidin (Wallac Inc). Each is then blocked with a 5 fold excess of biotin and allowed to equilibrate for 15 min. Equimolar amounts of receptor and peptide are mixed together and allowed to equilibrate for at least 30 min prior to the addition to either a variable or constant concentrations of the sample for which the affinity is to be determined. After equilibration, the time-resolved fluorescent signal is quantitated using a fluorescent plate reader. The affinity of the test compound is estimated from a plot of fluorescence versus concentration of test compound added.
Ligands that promote the complex formation induce a concentration-dependent increase in time-resolved fluorescent signal.
Human FXRα Ligand Binding Domain (FXRα LBD) was expressed in E.coli strain BL21 (DE3) as an amino-terminal polyhistidine tagged fusion protein. Expression was under the control of an IPTG inducible T7 promoter. DNA encoding this recombinant protein was subcloned into the pRSET-A expression vector (Invitrogen). The coding sequence of Human FXRα LBD was derived from Genbank accession number U 68233 (amino acids 222 to 472).
Routinely, 30-40 g cell paste (equivalent to 2-3 liters of the fermentation batch) was resuspended in 200-250 mL TBS, pH 7.2 (25mM Tris, 150 mM NaCl). Cells were lysed by passing 3 times through a French Press and cell debris was removed by centrifugation (30 minutes, 20,000 g, 4° C.). The cleared supernatant was filtered through course pre-filters, and TBS, pH 7.2, containing 500 mM imidazole was added to obtain a final imidazole concentration of 50 mM. This lysate was loaded onto a column (6×8 cm) packed with Sepharose [Ni^++ charged]Chelation resin (Pharmacia) and pre-equilibrated with TBS pH 7.21 50 mM imidazole. After washing to baseline absorbance with equilibration buffer, the column was washed with one column volume of TBS pH 7.2 containing 90 mM imidazole. FXRαLBD was eluted directly with 365 mM imidazole. Column fractions were pooled and dialyzed against TBS, pH 7.2, containing 0.5 mM EDTA and 5 mM DTT. The dialyzed protein sample was concentrated using Centri-prep 10 K (Amicon) and subjected to size exclusion, using a column (3×90 cm) packed with Sepharose S-75 resin (Pharmacia) pre-equilibrated with TBS, pH 7.2, containing 0.5 mM EDTA and 5 mM DTT.
Purified FXRα LBD was desalted/buffer exchanged using PD-10 gel filtration columns into PBS [100 mM NaPhosphate, pH 7.2, 150 mM NaCl]. FXRα LBD was diluted to approximately 10 μM in PBS and five-fold molar excess of NHS-LC-Biotin (Pierce) was added in a minimal volume of PBS. This solution was incubated with gentle mixing for 30 minutes at room temperature. The biotinylation modification reaction was stopped by the addition of 2000× molar excess of Tris-HCl, pH 8. The modified FXRα LBD was dialyzed against 4 buffer changes, each of at least 50 volumes, PBS containing 5 mM DTT, 2 mM EDTA and 2% sucrose.

Row | Compound | EC50 [nM]
1 | Cc1cc(OCc2c(-c3c(Cl)cccc3Cl)noc2C(C)C)ccc1N(C)Cc1cccc(C(=O)O)c1 [Example 1, 3-{[(4-{[3-(2,6-Dichlorophenyl)-5-isopropylisoxazol-4-yl]methoxy}-2-methylphenyl)(methyl)amino]methyl}benzoic acid] | < 100
2 | COC(=O)c1ccc(CN(C)c2ccc(OCc3c(-c4c(Cl)cccc4Cl)noc3C(C)C)cc2C)cc1 [Example 2, Methyl 4-[(4-{[3-(2,6-dichlorophenyl)-5-isopropyl-4-isoxazolyl]methoxy}-2-dimethylanilino)methyl]benzoate] | < 100
3 | CC(C)c1onc(-c2c(Cl)cccc2Cl)c1COc1ccc(NCc2cccc(C(=O)O)c2)c(Cl)c1 [Example 3, 3-{[(2-Chloro-4-{[3-(2,6-dichlorophenyl)-5-isopropylisoxazol-4-yl]methoxy}phenyl)amino]methyl}benzoic acid] | 102 to 1000
4 | Cc1cc(OCc2c(-c3c(Cl)cccc3Cl)noc2C(C)C)ccc1N(C)Cc1ccc(C(=O)O)o1 [Example 4, 5-[(4-{[3-(2,6-Dichlorophenyl)-5-isopropyl-4-isoxazolyl]methoxy}-2-dimethylanilino)methyl]-2-furoic acid] | 102 to 1000
5 | Cc1cc(OCc2c(-c3c(Cl)cccc3Cl)noc2C(C)C)ccc1N(C)Cc1ccc(C(=O)O)cc1 [Example 5, 4-[(4-{[3-(2,6-Dichlorophenyl)-5-isopropyl-4-isoxazolyl]methoxy}-2-dimethylanilino)methyl]benzoic acid] | < 100
6 | COC(=O)c1ccoc1CN(C)c1ccc(OCc2c(-c3c(Cl)cccc3Cl)noc2C(C)C)cc1C [Example 6, Methyl 2-[(4-{[3-(2,6-dichlorophenyl)-5-isopropyl-4-isoxazolyl]methoxy}-2-dimethylanilino)methyl]-3-furoate] | 102 to 1000
7 | Cc1cc(OCc2c(-c3c(Cl)cccc3Cl)noc2C(C)C)ccc1N(C)Cc1ccc2nonc2c1 [Example 7, N-(2,1,3-Benzoxadiazol-5-ylmethyl)-4-{[3-(2,6-dichlorophenyl)-5-isopropyl-4-isoxazolyl]methoxy}-N,2-dimethylaniline] | 102 to 1000
8 | Cc1cc(OCc2c(-c3c(Cl)cccc3Cl)noc2C(C)C)ccc1N(C)Cc1ccc(-c2csnn2)cc1 [Example 8, N-(4-{[3-(2,6-Dichlorophenyl)-5-isopropyl-4-isoxazolyl]methoxy}-2-methylphenyl)-N-methyl-N-[4-(1,2,3-thiadiazol-4-yl)benzyl]amine] | 102 to 1000
9 | Cc1cc(OCc2c(-c3c(Cl)cccc3Cl)noc2C(C)C)ccc1N(C)Cc1ccc(C#N)cc1 [Example 9, 4-[(4-{[3-(2,6-Dichlorophenyl)-5-isopropyl-4-isoxazolyl]methoxy}-2-dimethylanilino)methyl]benzonitrile] | 102 to 1000
10 | Cc1cc(OCc2c(-c3c(Cl)cccc3Cl)noc2C(C)C)ccc1N(C)Cc1occc1C(=O)O [Example 10, 2-[(4-{[3-(2,6-Dichlorophenyl)-5-isopropyl-4-isoxazolyl]methoxy}-2-dimethylanilino)methyl]-3-furoic acid] | 102 to 1000
11 | Cc1cc(OCc2c(-c3c(Cl)cccc3Cl)noc2C(C)C)ccc1N(C)Cc1cccc(CO)c1 [Example 11, {3-[(4-{[3-(2,6-Dichlorophenyl)-5-isopropyl-4-isoxazolyl]methoxy}-2-dimethylanilino)methyl]phenyl}methanol] | < 100
12 | Cc1cc(OCc2c(-c3c(Cl)cccc3Cl)noc2C(C)C)ccc1N(C)Cc1ccc(CO)cc1 [Example 12, {4-[(4-{[3-(2,6-Dichlorophenyl)-5-isopropyl-4-isoxazolyl]methoxy}-2-dimethylanilino)methyl]phenyl}methanol] | < 100
13 | CCc1onc(Cc2c(Cl)cccc2Cl)c1COc1ccc(N(C)Cc2cccc(C(=O)O)c2)c(C)c1 [Example 13, 3-[(4-{[3-(2,6-Dichlorobenzyl)-5-ethyl-4-isoxazolyl]methoxy}-2-dimethylanilino)methyl]benzoic acid] | 102 to 1000
14 | Cc1cc(OCc2c(-c3c(Cl)cc(Cl)cc3Cl)noc2C(C)C)ccc1N(C)Cc1cccc(C(=O)O)c1 [Example 14, 3-{[(4-{[5-Isopropyl-3-(2,4,6-trichlorophenyl)isoxazol-4-yl]methoxy}-2-methylphenyl)-(methyl)amino]methyl}benzoic acid] | 102 to 1000
15 | Cc1cc(OCc2c(Cc3c(Cl)cccc3Cl)noc2C(C)C)ccc1N(C)Cc1cccc(C(=O)O)c1 [Example 15, 3-[(4-{[3-(2,6-Dichlorobenzyl)-5-isopropyl-4-isoxazolyl]methoxy}-2-dimethylanilino)methyl]benzoic acid] | 102 to 1000
16 | Cc1cc(OCc2c(Cc3ccccc3Cl)noc2C(C)C)ccc1N(C)Cc1cccc(C(=O)O)c1 [Example 16, 3-{[(4-{[3-(2-Chlorobenzyl)-5-isopropylisoxazol-4-yl]methoxy}-2-methylphenyl)(methyl)-amino]methyl}benzoic acid] | 102 to 1000
17 | Cc1cc(OCc2c(Cc3c(Cl)cccc3Cl)noc2C2CC2)ccc1N(C)Cc1cccc(C(=O)O)c1 [Example 17, 3-[(4-{[5-Cyclopropyl-3-(2,6-dichlorobenzyl)-4-isoxazolyl]methoxy}-2-dimethylanilino)methyl]benzoic acid] | 102 to 1000
18 | Cc1cc(OCc2c(-c3ccccc3OC(F)(F)F)noc2C(C)C)ccc1N(C)Cc1ccc(C(=O)O)o1 [Example 18, 5-{[4-({5-Isopropyl-3-[2-(trifluoromethoxy)phenyl]-4-isoxazolyl}methoxy)-2-dimethylanilino]methyl}-2-furoic acid] | < 100
19 | Cc1cc(OCc2c(-c3ccccc3OC(F)(F)F)noc2C(C)C)ccc1N(C)Cc1ccc(C(=O)O)cc1 [Example 19, 4-{[4-({5-Isopropyl-3-[2-(trifluoromethoxy)phenyl]-4-isoxazolyl}methoxy)-2-dimethylanilino]methyl}benzoic acid] | < 100
20 | Cc1cc(OCc2c(-c3ccccc3OC(F)(F)F)noc2C(C)C)ccc1N(C)Cc1cccc(C(=O)O)c1 [Example 20, 3-{[4-({5-Isopropyl-3-[2-(trifluoromethoxy)phenyl]-4-isoxazolyl}methoxy)-2-dimethylanilino]methyl}benzoic acid] | < 100
21 | COC(=O)c1ccc(CN(C)c2ccc(OCc3c(-c4ccccc4OC(F)(F)F)noc3C(C)C)cc2C)o1 [Example 21, Methyl 5-{[4-({5-isopropyl-3-[2-(trifluoromethoxy)phenyl]-4-isoxazolyl}methoxy)-2-dimethylanilino]methyl}-2-furoate] | < 100
22 | COC(=O)c1ccc(CN(C)c2ccc(OCc3c(-c4ccccc4OC(F)(F)F)noc3C(C)C)cc2C)cc1 [Example 22, Methyl 4-{[4-({5-isopropyl-3-[2-(trifluoromethoxy)phenyl]-4-isoxazolyl}methoxy)-2-dimethylanilino]methyl}benzoate] | 102 to 1000
23 | CC(C)c1onc(-c2c(Cl)cccc2Cl)c1COc1ccc(NC(=O)c2ccc(C(=O)O)cc2)c(Cl)c1 [Example 23, 4-{[(2-Chloro-4-{[3-(2,6-dichlorophenyl)-5-isopropylisoxazol-4-yl]methoxy}phenyl)amino]carbonyl}benzoic acid] | 102 to 1000
24 | COC(=O)c1cccc(C(=O)Nc2ccc(OCc3c(-c4c(Cl)cccc4Cl)noc3C(C)C)cc2Cl)c1 [Example 24, Methyl 3-[(2-chloro-4-{[3-(2,6-dichlorophenyl)-5-isopropyl-4-isoxazolyl]methoxy}anilino)carbonyl]benzoate] | 102 to 1000
